According to paper PMC11765572 (International Journal of Molecular Sciences, 2025):
Like-named read-outs stand apart in the source and are kept apart here.

Experiments:
SARS-CoV-2 M^pro = biological target: T1, SARS-CoV-2 M^pro (Severe acute respiratory syndrome coronavirus 2, UniProt P0DTD1); assay: biochemical; details: FRET; for IC50: substrate Dabcyl-[…]-Edans, mean ± SD of three independent measurements; for inhibition at 1 µM: single concentration of 1 μM, read-out: inhibition rate
T1 construct: main protease (M^pro, also known as Nsp5 and 3C-like protease); purchased Beyotime P0312S

[1] = tested on: SARS-CoV-2 (BetaCov/Belgium/GHB-03021/2020 B.1 lineage A); details: […]; mean ± SD of two independent replicates
SARS-CoV-2 delta strains = tested on: SARS-CoV-2 delta strains; design: method as in PMID 39072488; details: delta strain, Vero E6 cells, viral copy numbers in supernatant by qRT-PCR; cited from earlier work
in vitro = details: African green monkey
[2] = tested on: SARS-CoV-2 (BetaCov/Belgium/GHB-03021/2020 B.1 lineage A); assay: microbe, parasite or virus in culture; details: Severe acute respiratory syndrome coronavirus 2, 96 h, mean ± SD of two independent replicates
[3] = tested on: SARS-CoV-2 (BetaCov/Belgium/GHB-03021/2020 B.1 lineage A); details: VeroE6-eGFP cells; from a previous report, measured under identical conditions; cited from earlier work
VeroE6-eGFP cells = details: from a previous report, measured under identical conditions; cited from earlier work

SMILES	IC50 (SARS-CoV-2 M^pro)	inhibition at 1 µM (SARS-CoV-2 M^pro)	EC50 [1]	EC50 (SARS-CoV-2 delta strains)	CC50 at 5 days (in vitro)	EC50 [2]	EC50 [3]	CC50 (VeroE6-eGFP cells)
CNC(=O)c1cc(Br)cc([N+](=O)[O-])c1N[C@@H]1CCCC[C@@H]1NC(=O)c1cc(=O)[nH]c2ccccc12 [Compound A9, N-((1S,2R)-2-((4-bromo-2-(methylcarbamoyl)-6-nitrophenyl)amino)cyclohexyl)-2-oxo-1,2-dihydroquinoline-4-carboxamide]	154 ± 6 nM	92%	micromolar or submicromolar range	849 nM	> 100000 nM	180 ± 20 nM		
CNC(=O)c1cc(Br)cc([N+](=O)[O-])c1N[C@@H]1CCCC[C@@H]1NC(=O)c1cccnc1 [Compound A5, N-((1S,2R)-2-((4-bromo-2-(methylcarbamoyl)-6-nitrophenyl)amino)cyclohexyl)nicotinamide]	1050 ± 67 nM	53.7%			> 100000 nM	2010 to 6050 nM		
CNC(=O)c1cc(Br)cc([N+](=O)[O-])c1N[C@@H]1CCCC[C@@H]1NC(=O)c1cncc(O)c1 [Compound A6, N-((1S,2R)-2-((4-bromo-2-(methylcarbamoyl)-6-nitrophenyl)amino)cyclohexyl)-5-hydroxynicotinamide]	1080 ± 23 nM	55.5%			> 100000 nM			
CC(C)(C)[C@H](NC(=O)C(F)(F)F)C(=O)N1C[C@H]2[C@@H]([C@H]1C(=O)N[C@H](C#N)C[C@@H]1CCNC1=O)C2(C)C [Nirmatrelvir]							123 ± 34 nM	> 100000 nM
